# Results: the Kinase Knowledgebase extract (Sharma et al. 2016)
# How the values were obtained:
# CDK2 (human) [1] = biological target: CDK2 (human) (UniProt P24941); assay: Enzyme Assay
# CDK2 (human) [2] = biological target: CDK2 (human) (UniProt P24941); assay: Cell-Based Assay
# EGFR (human) = EGFR (human) (UniProt P00533)
# Chain of EGFR (human) (P00533 whole entry, looked up): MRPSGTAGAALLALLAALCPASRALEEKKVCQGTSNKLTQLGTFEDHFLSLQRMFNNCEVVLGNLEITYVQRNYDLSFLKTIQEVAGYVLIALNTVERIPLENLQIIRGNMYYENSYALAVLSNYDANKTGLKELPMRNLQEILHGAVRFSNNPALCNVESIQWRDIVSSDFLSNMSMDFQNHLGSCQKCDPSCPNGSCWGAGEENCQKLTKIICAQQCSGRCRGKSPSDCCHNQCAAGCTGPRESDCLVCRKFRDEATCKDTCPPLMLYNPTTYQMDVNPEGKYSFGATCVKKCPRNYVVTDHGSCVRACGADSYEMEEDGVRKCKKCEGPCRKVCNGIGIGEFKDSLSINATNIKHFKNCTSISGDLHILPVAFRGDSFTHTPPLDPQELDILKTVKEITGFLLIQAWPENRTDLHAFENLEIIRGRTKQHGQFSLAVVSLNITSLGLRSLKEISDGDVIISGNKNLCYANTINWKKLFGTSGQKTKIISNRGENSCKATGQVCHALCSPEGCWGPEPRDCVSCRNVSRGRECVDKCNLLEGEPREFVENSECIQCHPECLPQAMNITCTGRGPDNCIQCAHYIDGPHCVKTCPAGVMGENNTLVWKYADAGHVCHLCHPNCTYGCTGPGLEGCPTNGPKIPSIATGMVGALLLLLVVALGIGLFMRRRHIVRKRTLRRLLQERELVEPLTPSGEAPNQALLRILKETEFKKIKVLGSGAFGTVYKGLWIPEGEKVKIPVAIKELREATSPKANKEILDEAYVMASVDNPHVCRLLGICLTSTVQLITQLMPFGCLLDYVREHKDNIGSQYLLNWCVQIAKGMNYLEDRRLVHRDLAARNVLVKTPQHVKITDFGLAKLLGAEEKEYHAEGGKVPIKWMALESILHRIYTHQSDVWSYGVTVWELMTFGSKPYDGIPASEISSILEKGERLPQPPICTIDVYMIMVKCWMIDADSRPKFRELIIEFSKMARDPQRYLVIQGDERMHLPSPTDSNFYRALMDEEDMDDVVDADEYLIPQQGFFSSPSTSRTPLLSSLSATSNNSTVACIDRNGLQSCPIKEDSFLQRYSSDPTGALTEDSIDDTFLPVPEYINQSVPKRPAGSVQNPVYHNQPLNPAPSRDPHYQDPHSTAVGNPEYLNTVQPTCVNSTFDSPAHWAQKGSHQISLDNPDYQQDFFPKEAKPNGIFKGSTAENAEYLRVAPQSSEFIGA
IC50 (CDK2 (human) [1]) [µM],IC50 (EGFR (human)) [µM],Compound,GI50 (CDK2 (human) [2]; a431) [µM],GI50 (CDK2 (human) [2]; hct 116) [µM]
3.8,> 100,Cc1nc(NN=Cc2ccco2)nc(-c2ccc(O)cc2O)c1C(=O)Nc1cccc([N+](=O)[O-])c1,2.91,8.89
> 100,47.9,Cc1nc(NN)nc(-c2ccc(O)cc2O)c1C(=O)Nc1cccc([N+](=O)[O-])c1,24.3,47.7
–,–,CC1=C(C(=O)Nc2cccc([N+](=O)[O-])c2)C(c2ccc(O)cc2O)NC(SCc2ccccc2)=N1 (stereo not given),> 100,–
0.3,80.6,Cc1nc(NN2C(=O)C(=Cc3cccs3)SC2=S)nc(-c2ccc(O)cc2O)c1C(=O)Nc1cccc([N+](=O)[O-])c1,2.78,4.5
28.2,> 100,Cc1nc(NN2C(=O)C(=Cc3ccccc3)SC2=S)nc(-c2ccc(O)cc2O)c1C(=O)Nc1cccc([N+](=O)[O-])c1,24.3,16.6
3.1,> 100,CC1=CN(c2nc(C)c(C(=O)Nc3cccc([N+](=O)[O-])c3)c(-c3ccc(O)cc3O)n2)C(=O)C1=Cc1cccs1,37.1,26.5
10.3,> 100,CC1=CN(c2nc(C)c(C(=O)Nc3cccc([N+](=O)[O-])c3)c(-c3ccc(O)cc3O)n2)C(=O)C1=Cc1ccco1,15.8,> 100
0.4,99.3,Cc1nc(NN2C(=O)C(=Cc3ccco3)SC2=S)nc(-c2ccc(O)cc2O)c1C(=O)Nc1cccc([N+](=O)[O-])c1,28.9,> 100
–,–,CC1=C(C(=O)Nc2cccc([N+](=O)[O-])c2)C(c2ccc(O)cc2O)NC(NCc2ccccc2)=N1 (stereo not given),–,> 100
–,0.0008,Clc1cccc(Nc2ncnc3cc4c(cc23)OCCO4)c1,–,–
22.9,> 100,Cc1nc(NN=Cc2cccs2)nc(-c2ccc(O)cc2O)c1C(=O)Nc1cccc([N+](=O)[O-])c1,19.1,38.2
